Data reported in patent US12123010B2, “Plants having increased tolerance to herbicides” (BASF SE, priority 2017, dated 2024).
Several values for one entry are separate records, joined by “and”; a condition that tells them apart may be missing. Identical values can stand only once.

Tests used:
[1] = target: Wild Type PPO Enzyme (Amaranthus PPO2, SEQ ID NO: 1) (Amaranthus tuberculatus, UniProt Q0NZW9); assay: PPO enzyme assay (recombinant), wild type; type: biochemical
[2] = system: Variant PPO Enzyme R128A, F420V (Amaranthus PPO2); assay: biochemical; type: biochemical; conditions: variant R128A, F420V vs wild type
[3] = system: Variant PPO Enzyme R128A, F420M (Amaranthus PPO2); type: biochemical; conditions: variant R128A, F420M vs wild type
[4] = system: Variant PPO Enzyme L397Q, F420V (Amaranthus PPO2); type: biochemical; conditions: variant L397Q, F420V vs wild type
[5] = system: Variant PPO Enzyme L397Q (Amaranthus PPO2); type: biochemical; conditions: variant L397Q vs wild type
[6] = system: Variant PPO Enzyme F420V (Amaranthus PPO2); type: biochemical; conditions: variant F420V vs wild type
[7] = system: Variant PPO Enzyme F420M (Amaranthus PPO2); assay: biochemical; type: biochemical; conditions: variant F420M vs wild type
[8] = system: Transgenic T2 Arabidopsis plants harboring PPO inhibitor tolerance trait; assay: Lab based germination assay in 48-well plates (Table i); type: in vivo, Arabidopsis thaliana; conditions: construct AMATU_PPO2_TP_hemG (Escherichia coli); in comparison to wild type plants
[9] = system: Transgenic T2 Arabidopsis plants and ARBTH WT MC24 non-transgenic; assay: Greenhouse post spray test, injury 14 DAT (Tables ii, iii); type: in vivo, Arabidopsis thaliana; conditions: Arabidopsis thaliana, 336 h;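 further: value is percent injury to the sprayed plants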
[10] = system: Transgenic T2 or T3 Soybean plants harbouring PPO inhibitor tolerance trait; assay: Soybean Trial, post spray, injury score 14 DAT; type: in vivo
Protocol: Soybean cv Jake is transformed as previously described by Siminszky et al., Phytochem Rev. 5:445-458 (2006). After regeneration, transformants are transplanted to soil in small pots, placed in growth chambers (16 hr day/8 hr night; 25° C. day/23° C. night; 65% relative humidity; 130-150 microE m-2 s-1) and subsequently tested for the presence of the T-DNA via Taqman analysis. After a few weeks, healthy, transgenic positive, single copy events are transplanted to larger pots and allowed to grow in the growth chamber. An optimal shoot for cutting is about 3-4 inches tall, with at least two nodes present. Each cutting is taken from the original transformant (mother plant) and dipped into rooting hormone powder (indole-3-butyric acid, IBA). The cutting is then placed in oasis wedges inside a bio-dome. The mother plant is taken to maturity in the greenhouse and harvested for seed. Wild type cuttings are also taken simultaneously to serve as negative controls. The cuttings are kept in the bio-dome for 5-7 days and then transplanted to 3 inch pots and then acclimated in the growth chamber for two more days. Subsequently, the cuttings are transferred to the greenhouse, acclimated for approximately 4 days prior to spray. T0 or 2-week old T1 plants are sprayed with a treatment of the uracilpyridines as disclosed SUPRA and photosynthesis inhibitor diuron as negative control. Herbicide injury evaluations are taken at 2, 7, 14 and 21 days after treatment.
Transgenic T2 or T3 Soybean plants harbouring PPO inhibitor tolerance trait, were sprayed post with the indicated amount of uracilpyridine+1% (v/v) MSO. Evaluation performed 14 Days After Treatment (DAT) and shown as injury (0-9) relative to non-transgenic treated plants. Injury Scale: 0-9, 0=no imjury, 9=maximum injury. Note: segregating lines.

Sequence of Wild Type PPO Enzyme (Amaranthus PPO2, SEQ ID NO: 1) (Q0NZW9 1-534): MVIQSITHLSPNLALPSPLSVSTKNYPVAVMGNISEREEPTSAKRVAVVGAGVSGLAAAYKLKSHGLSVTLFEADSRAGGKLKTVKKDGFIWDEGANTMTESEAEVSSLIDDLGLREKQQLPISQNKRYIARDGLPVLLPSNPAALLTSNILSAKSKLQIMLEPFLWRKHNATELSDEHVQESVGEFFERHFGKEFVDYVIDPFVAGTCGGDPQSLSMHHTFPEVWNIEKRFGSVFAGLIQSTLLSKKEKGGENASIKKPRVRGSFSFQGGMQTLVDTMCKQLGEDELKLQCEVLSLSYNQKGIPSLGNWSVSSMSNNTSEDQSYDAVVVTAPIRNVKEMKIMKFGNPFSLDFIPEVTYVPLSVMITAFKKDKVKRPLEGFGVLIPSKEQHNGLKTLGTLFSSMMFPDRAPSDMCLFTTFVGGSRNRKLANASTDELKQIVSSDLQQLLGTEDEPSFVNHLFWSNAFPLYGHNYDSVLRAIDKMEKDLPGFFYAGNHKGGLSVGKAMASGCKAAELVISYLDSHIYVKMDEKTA

## CCOC(=O)COc1ncccc1Oc1nc(-n2c(=O)cc(C(F)(F)F)n(C)c2=O)c(F)cc1Cl [Uracilpyridine 2, ethyl 2-[[3-[[3-chloro-5-fluoro-6-[3-methyl-2,6-dioxo-4-(trifluoromethyl)pyrimidin-1-yl]-2-pyridyl]oxy]-2-pyridyl]oxy]acetate]
[1]
  IC50: 0.187 nM
[2]
  Tolerance Factor (R/S): 796 and 1105
[3]
  Tolerance Factor (R/S): 521
[4]
  Tolerance Factor (R/S): 13678
[5]
  Tolerance Factor (R/S): 7
[6]
  Tolerance Factor (R/S): 567
[7]
  Tolerance Factor (R/S): 244 and 415
[8]
  Tolerance Factor: 6400
[9]; Table ii, ALOMY_PPO2_R137L_F438V event F, 50 g ai/ha
  pest or weed control at 50 g/ha: 18%
[9]; Table ii, ALOMY_PPO2_R137L_F438V event F, 100 g ai/ha
  pest or weed control at 100 g/ha: 18%
[9]; Table ii, ALOMY_PPO2_R137L_F438V event F, 200 g ai/ha
  pest or weed control at 200 g/ha: 23%
[9]; Table ii, ALOMY_PPO2_R137L_F438V event G, 50 g ai/ha
  pest or weed control at 50 g/ha: 0%
[9]; Table ii, ALOMY_PPO2_R137L_F438V event G, 100 g ai/ha
  pest or weed control at 100 g/ha: 10%
[9]; Table ii, ALOMY_PPO2_R137L_F438V event G, 200 g ai/ha
  pest or weed control at 200 g/ha: 20%
[9]; Table ii, ALOMY_PPO2_TP_AMATU_PPO2_R128M_F420I event R, 50 g ai/ha
  pest or weed control at 50 g/ha: 45%
[9]; Table ii, ALOMY_PPO2_TP_AMATU_PPO2_R128M_F420I event R, 100 g ai/ha
  pest or weed control at 100 g/ha: 45%
[9]; Table ii, ALOMY_PPO2_TP_AMATU_PPO2_R128M_F420I event R, 200 g ai/ha
  pest or weed control at 200 g/ha: 75%
[9]; Table ii, AMATU_PPO2_R128A_F420M event Q, 50 g ai/ha
  pest or weed control at 50 g/ha: 10%
[9]; Table ii, AMATU_PPO2_R128A_F420M event Q, 100 g ai/ha
  pest or weed control at 100 g/ha: 15%
[9]; Table ii, AMATU_PPO2_R128A_F420M event Q, 200 g ai/ha
  pest or weed control at 200 g/ha: 65%
[9]; Table ii, AMATU_PPO2_R128M_F420I event K, 50 g ai/ha
  pest or weed control at 50 g/ha: 18%
[9]; Table ii, AMATU_PPO2_R128M_F420I event K, 100 g ai/ha
  pest or weed control at 100 g/ha: 58%
[9]; Table ii, AMATU_PPO2_R128M_F420I event K, 200 g ai/ha
  pest or weed control at 200 g/ha: 70%
[9]; Table ii, AMATU_PPO2_TP_hemG event R, 100 g ai/ha
  pest or weed control at 100 g/ha: 40%
[9]; Table ii, AMATU_PPO2_TP_hemG event R, 200 g ai/ha
  pest or weed control at 200 g/ha: 35%
[9]; Table ii, AMATU_PPO2_WT event Q, 1 g ai/ha
  pest or weed control at 1 g/ha: 23%
[9]; Table ii, AMATU_PPO2_WT event Q, 5 g ai/ha
  pest or weed control at 5 g/ha: 100%
[9]; Table ii, AMATU_PPO2_WT event Q, 10 g ai/ha
  pest or weed control at 10 g/ha: 100%
[9]; Table ii, AMATU_PPO2_WT event Q, 30 g ai/ha
  pest or weed control at 30 g/ha: 100%
[9]; Table ii, ARBTH WT MC24 non-transgenic, 1 g ai/ha + 1% MSO
  pest or weed control at 1 g/ha: 100%
[9]; Table ii, ARBTH WT MC24 non-transgenic, 5 g ai/ha + 1% MSO
  pest or weed control at 5 g/ha: 100%
[9]; Table ii, ARBTH WT MC24 non-transgenic, 10 g ai/ha + 1% MSO
  pest or weed control at 10 g/ha: 100%
[9]; Table ii, ARBTH WT MC24 non-transgenic, 30 g ai/ha + 1% MSO
  pest or weed control at 30 g/ha: 100%
[9]; Table ii, ARBTH WT MC24 non-transgenic, 50 g ai/ha + 1% MSO
  pest or weed control at 50 g/ha: 100%
[9]; Table ii, ARBTH WT MC24 non-transgenic, 80 g ai/ha + 1% MSO
  pest or weed control at 80 g/ha: 100%
[9]; Table ii, ARBTH WT MC24 non-transgenic, 100 g ai/ha + 1% MSO
  pest or weed control at 100 g/ha: 100%
[9]; Table ii, ARBTH WT MC24 non-transgenic, 200 g ai/ha + 1% MSO
  pest or weed control at 200 g/ha: 100%
[9]; Table ii, ARBTH_PPO1_S305L_Y426M event O, 30 g ai/ha
  pest or weed control at 30 g/ha: 33%
[9]; Table ii, ARBTH_PPO1_S305L_Y426M event O, 50 g ai/ha as printed (row position suggests 5)
  pest or weed control at 50 g/ha: 0%
[9]; Table ii, ARBTH_PPO1_S305L_Y426M event O, 80 g ai/ha
  pest or weed control at 80 g/ha: 45%
[9]; Table ii, ARBTH_PPO1_S305L_Y426M event O, 100 g ai/ha as printed (row position suggests 10)
  pest or weed control at 100 g/ha: 0%
[9]; Table ii, ARBTH_PPO1_WT event Q, 1 g ai/ha
  pest or weed control at 1 g/ha: 15%
[9]; Table ii, ARBTH_PPO1_WT event Q, 5 g ai/ha
  pest or weed control at 5 g/ha: 100%
[9]; Table ii, ARBTH_PPO1_WT event Q, 10 g ai/ha
  pest or weed control at 10 g/ha: 100%
[9]; Table ii, ARBTH_PPO1_WT event Q, 30 g ai/ha
  pest or weed control at 30 g/ha: 100%
[9]; Table iii, ALOMY_PPO2_R137L_F438M (unnamed lines), 50 g ai/ha
  pest or weed control at 50 g/ha: 0%
[9]; Table iii, ALOMY_PPO2_R137L_F438M (unnamed lines), 100 g ai/ha
  pest or weed control at 100 g/ha: 0%
[9]; Table iii, ALOMY_PPO2_R137L_F438V (unnamed lines), 50 g ai/ha
  pest or weed control at 50 g/ha: 0%
[9]; Table iii, ALOMY_PPO2_R137L_F438V (unnamed lines), 100 g ai/ha
  pest or weed control at 100 g/ha: 0%
[9]; Table iii, AMATU_PPO2_L397E_F420M (unnamed lines), 50 g ai/ha
  pest or weed control at 50 g/ha: 0%
[9]; Table iii, AMATU_PPO2_L397E_F420V (unnamed lines), 100 g ai/ha
  pest or weed control at 100 g/ha: 0%
[9]; Table iii, AMATU_PPO2_L397Q_F420V (unnamed lines), 100 g ai/ha
  pest or weed control at 100 g/ha: 80%
[9]; Table iii, ARBTH WT MC 24 (non-transgenic), 50 g ai/ha + 1% MSO
  pest or weed control at 50 g/ha: 100%
[9]; Table iii, ARBTH WT MC 24 (non-transgenic), 100 g ai/ha + 1% MSO
  pest or weed control at 100 g/ha: 100%
[10]; L397E, F420M Event 2, 25 g/ha + 1% (v/v) MSO
  injury (0-9): 0 (No Injury)
[10]; L397E, F420M Event 2, 50 g/ha + 1% (v/v) MSO
  injury (0-9): 0 (No Injury)
[10]; L397E, F420M Event 2, 100 g/ha + 1% (v/v) MSO
  injury (0-9): 0 (No Injury)
[10]; L397E, F420V Event 1, 25 g/ha + 1% (v/v) MSO
  injury (0-9): 0 (No Injury)
[10]; L397E, F420V Event 1, 50 g/ha + 1% (v/v) MSO
  injury (0-9): 0 (No Injury)
[10]; L397E, F420V Event 1, 100 g/ha + 1% (v/v) MSO
  injury (0-9): 0 (No Injury)
[10]; L397Q, F420M Event 3, 25 g/ha + 1% (v/v) MSO
  injury (0-9): 0 (No Injury) and 3
[10]; L397Q, F420M Event 3, 50 g/ha + 1% (v/v) MSO
  injury (0-9): 3
[10]; L397Q, F420M Event 3, 100 g/ha + 1% (v/v) MSO
  injury (0-9): 3 and 2
